Marks after values point to notes of the source that are not given here.
What was measured:
[1] = test system: db/db mice; assay: Fasting plasma glucose (FPG) measurement; assay type: in vivo; settings: for Average FPG level: dosing 6 weeks
Experimental: Four to five weeks old db/db mice (BKS.Cg-Dock7^m+/+Lepr^db/JNarl) and m/m mice (BKS.Cg-Dock7^m+/Dock7^m+) were obtained from National Laboratory Animal Center (Nangang, Taipei, Taiwan). These animals were maintained in a facility with a 12-h dark-light cycle at 24±2° C. and 65±5% humidity and were provided food (No. 5001; PMI Nutrition International, Brentwood, Mo.) and water ad libitum. For experiments, the average body weight of m/m mice was approximately 20 g, and that of db/db mice was approximately 30 g.
For each mouse, blood was sampled from the tail vein and measured for FPG levels using a blood glucose meter (OneTouch UltraEasy, Johnson & Johnson, USA) at a predestined time point.

[2] = Body weight of mice recorded weekly; assay type: in vivo; settings: for Body weight: dosing 6 weeks
Experimental: Four to five weeks old db/db mice (BKS.Cg-Dock7^m+/+Lepr^db/JNarl) and m/m mice (BKS.Cg-Dock7^m+/Dock7^m+) were obtained from National Laboratory Animal Center ([…], Taiwan). […] PMI Nutrition International, Brentwood, Mo.) and water ad libitum. […] The mouse body weight (bw) and the amounts of water and food intake were recorded weekly for the entire study period.

[3] = Ex 2 G4 db/db, DMH i.p. 0.1 mg/g bw/day, week 3
[4] = Ex 2 G4 db/db, DMH i.p. 0.1 mg/g bw/day, week 6
[5] = Ex 2 G4 db/db, DMH i.p. 0.1 mg/g bw/day, week 9
[6] = Ex 2 G4 db/db, DMH i.p. 0.1 mg/g bw/day, week 12
[7] = Ex 2 G4 db/db, DMH i.p. 0.1 mg/g bw/day, week 16
[8] = Ex 2 G4 db/db, DMH i.p. 0.1 mg/g bw/day, week 18

SMILES: C[C@@H](O)[C@H]1C(=O)N2C(C(=O)O)=C(S[C@@H]3CN[C@H](C(=O)Nc4cccc(C(=O)O)c4)C3)[C@H](C)[C@H]12 [DMH, ertapenem]
- Duration of blood-glucose-lowering effect after treatment was stopped ([1]; Ex 2, db/db mice): at least 6 weeks
- Lowering blood glucose levels (FPG) in db/db mice ([1]; Ex 2, week 3, 0.1 mg/g bw and 0.4 mg/g bw vs metformin 0.3 mg/g bw): as effective as metformin
- Average FPG level ([1]; Ex 2 G4 db/db, DMH i.p. 0.1 mg/g bw/day, week 0): 139 ± 21^b
- Average FPG level [1, 3]: 134 ± 21^b
- Average FPG level [1, 4]: 219 ± 36^b
- Average FPG level [1, 5]: 217 ± 37^bc
- Average FPG level [1, 6]: 154 ± 30^ab
- Average FPG level [1, 7]: 126 ± 43^ab
- Average FPG level [1, 8]: 263 ± 58^b
- Average FPG level ([1]; Ex 2 G5 db/db, DMH i.p. 0.2 mg/g bw/day, week 0): 142 ± 20^b
- Average FPG level ([1]; Ex 2 G5 db/db, DMH i.p. 0.2 mg/g bw/day, week 3): 158 ± 25^bc
- Average FPG level ([1]; Ex 2 G5 db/db, DMH i.p. 0.2 mg/g bw/day, week 6): 166 ± 21^b
- Average FPG level ([1]; Ex 2 G5 db/db, DMH i.p. 0.2 mg/g bw/day, week 9): 212 ± 30^bc
- Average FPG level ([1]; Ex 2 G5 db/db, DMH i.p. 0.2 mg/g bw/day, week 12): 191 ± 42^bc
- Average FPG level ([1]; Ex 2 G5 db/db, DMH i.p. 0.2 mg/g bw/day, week 16): 154 ± 56^ab
- Average FPG level ([1]; Ex 2 G5 db/db, DMH i.p. 0.2 mg/g bw/day, week 18): 308 ± 51^b
- Average FPG level ([1]; Ex 2 G6 db/db, DMH i.p. 0.4 mg/g bw/day, week 0): 141 ± 23^b
- Average FPG level ([1]; Ex 2 G6 db/db, DMH i.p. 0.4 mg/g bw/day, week 3): 121 ± 23^ab
- Average FPG level ([1]; Ex 2 G6 db/db, DMH i.p. 0.4 mg/g bw/day, week 6): 175 ± 30^b
- Average FPG level ([1]; Ex 2 G6 db/db, DMH i.p. 0.4 mg/g bw/day, week 9): 172 ± 27^b
- Average FPG level ([1]; Ex 2 G6 db/db, DMH i.p. 0.4 mg/g bw/day, week 12): 166 ± 26^ac
- Average FPG level ([1]; Ex 2 G6 db/db, DMH i.p. 0.4 mg/g bw/day, week 16): 108 ± 22^ab
- Average FPG level ([1]; Ex 2 G6 db/db, DMH i.p. 0.4 mg/g bw/day, week 18): 266 ± 35^b
- Effect on body weight in db/db mice ([2]; Ex 2, 0.1 mg/g bw and 0.4 mg/g bw): positive effects of body weight lowering
- Body weight ([2]; Ex 2 G3 db/db, 0.3 mg/g bw/day (row printed 0.3 DMH), week 14): 43.94 ± 1.54^b
- Body weight ([2]; Ex 2 G3 db/db, 0.3 mg/g bw/day (row printed 0.3 DMH), week 15): 46.46 ± 1.39^b
- Body weight ([2]; Ex 2 G3 db/db, 0.3 mg/g bw/day (row printed 0.3 DMH), week 16): 47.68 ± 1.32^b
- Body weight ([2]; Ex 2 G3 db/db, 0.3 mg/g bw/day (row printed 0.3 DMH), week 17): 48.31 ± 1.38^b
- Body weight ([2]; Ex 2 G3 db/db, 0.3 mg/g bw/day (row printed 0.3 DMH), week 18): 49.57 ± 1.47^b
- Body weight ([2]; Ex 2 G3 db/db, 0.3 mg/g bw/day (row printed 0.3 DMH), week 19): 51.98 ± 1.66^b
- Body weight ([2]; Ex 2 G4 db/db, DMH i.p. 0.1 mg/g bw/day, Baseline): 29.44 ± 2.09^b
- Body weight ([2]; Ex 2 G4 db/db, DMH i.p. 0.1 mg/g bw/day, week 1): 29.21 ± 2.01^b
- Body weight ([2]; Ex 2 G4 db/db, DMH i.p. 0.1 mg/g bw/day, week 2): 29.95 ± 1.79^b
- Body weight [2, 3]: 32.38 ± 1.38^b
- Body weight ([2]; Ex 2 G4 db/db, DMH i.p. 0.1 mg/g bw/day, week 4): 33.49 ± 1.13^b
- Body weight ([2]; Ex 2 G4 db/db, DMH i.p. 0.1 mg/g bw/day, week 5): 35.72 ± 1.01^b
- Body weight [2, 4]: 36.73 ± 0.95^b
- Body weight ([2]; Ex 2 G4 db/db, DMH i.p. 0.1 mg/g bw/day, week 7): 36.68 ± 0.83^b
- Body weight ([2]; Ex 2 G4 db/db, DMH i.p. 0.1 mg/g bw/day, week 8): 37.83 ± 0.77^b
- Body weight [2, 5]: 38.46 ± 0.8^b
- Body weight ([2]; Ex 2 G4 db/db, DMH i.p. 0.1 mg/g bw/day, week 10): 39.43 ± 0.81^b
- Body weight ([2]; Ex 2 G4 db/db, DMH i.p. 0.1 mg/g bw/day, week 11): 40.86 ± 0.82^b
- Body weight [2, 6]: 42.59 ± 0.87^b
- Body weight ([2]; Ex 2 G4 db/db, DMH i.p. 0.1 mg/g bw/day, week 13): 44.21 ± 0.99^b
- Body weight ([2]; Ex 2 G4 db/db, DMH i.p. 0.1 mg/g bw/day, week 14): 43.56 ± 1.08^b
- Body weight ([2]; Ex 2 G4 db/db, DMH i.p. 0.1 mg/g bw/day, week 15): 45.90 ± 1.18^b
- Body weight [2, 7]: 46.80 ± 1.29^b
- Body weight ([2]; Ex 2 G4 db/db, DMH i.p. 0.1 mg/g bw/day, week 17): 47.21 ± 1.26^b
- Body weight [2, 8]: 48.14 ± 1.23^b
- Body weight ([2]; Ex 2 G4 db/db, DMH i.p. 0.1 mg/g bw/day, week 19): 50.91 ± 1.22^b
- Body weight ([2]; Ex 2 G5 db/db, DMH i.p. 0.2 mg/g bw/day, Baseline): 31.70 ± 1.46^b
- Body weight ([2]; Ex 2 G5 db/db, DMH i.p. 0.2 mg/g bw/day, week 1): 31.31 ± 1.48^b

Reference: patent US11419852B2, “Beta-lactam compounds or salts thereof for use in long-acting prevention or treatment of a glucose metabolism disorder” (GLYCOLYSIS BIOMED CO., LTD., priority 2019, dated 2022)
